Assay results taken from the CheMixHub viscosity set.
“And” between values parts separate entries of the source, which are not always exact repeats. Identical values can stand only once. ± gives the uncertainty stated by the source.

`CC[n+]1ccccc1.N#C[N-]C#N` showed a viscosity (293.15 K, 100 kPa) of 22.1 ± 2.2 mPa·s, a viscosity (298.15 K, 100 kPa) of 18.92 ± 1.9 mPa·s and a viscosity (303.15 K, 100 kPa) of 16.44 ± 1.6 mPa·s. The viscosity (308.15 K, 100 kPa) was 14.31 ± 1.4 mPa·s, the viscosity (313.15 K, 100 kPa) was 12.48 ± 1.2 mPa·s and the viscosity (318.15 K, 100 kPa) was 10.98 ± 1.1 mPa·s.
In the case of `CO`, the viscosity (293.15 K, 100 kPa) is reported as 0.587 ± 0.005 mPa·s and 0.55 ± 0.15 mPa·s and 0.58 ± 0.006 mPa·s, the viscosity (293.31 K, 101 kPa) is reported as 0.589 ± 0.007 mPa·s and the viscosity (297.8 K, 101 kPa) is reported as 0.5495 ± 0.0041 mPa·s. For the same molecule, the viscosity (298 K, 101.3 kPa) was 0.59 ± 0.008 mPa·s, the viscosity (298.15 K, 100 kPa) was 0.5417 ± 0.022 mPa·s and the viscosity (298.15 K, 101.33 kPa) was 0.5365 ± 0.013 mPa·s and 0.6152 ± 0.022 mPa·s and 0.562 ± 0.011 mPa·s. For the same molecule, the viscosity (299 K, 101 kPa) was 0.8138 mPa·s, the viscosity (303 K, 100 kPa) was 0.5211 ± 0.053 mPa·s and 0.5 ± 0.02 mPa·s and the viscosity (303 K, 101.3 kPa) was 0.5773 ± 0.08 mPa·s. The viscosity (303.15 K, 100 kPa) was 0.527 ± 0.007 mPa·s, the viscosity (303.15 K, 101.33 kPa) was 0.5054 ± 0.013 mPa·s and 0.541 ± 0.0054 mPa·s and the viscosity (303.16 K, 101 kPa) was 0.56 ± 0.079 mPa·s. For the same molecule, the viscosity (303.21 K, 101 kPa) was 0.511 ± 0.006 mPa·s, the viscosity (308.15 K, 100 kPa) was 0.498 ± 0.006 mPa·s and 0.491 ± 0.004 mPa·s and 0.4987 ± 0.02 mPa·s and the viscosity (308.15 K, 101.3 kPa) was 0.474 ± 0.013 mPa·s. The viscosity (308.56 K, 101 kPa) was 0.476 ± 0.006 mPa·s, the viscosity (313 K, 100 kPa) was 0.4373 ± 0.044 mPa·s and 0.42 ± 0.02 mPa·s and the viscosity (313 K, 101.3 kPa) was 0.455 ± 0.028 mPa·s. The viscosity (313.15 K, 100 kPa) was 0.471 ± 0.006 mPa·s and 0.465 ± 0.004 mPa·s, the viscosity (313.15 K, 101.33 kPa) was 0.4423 ± 0.011 mPa·s and 0.463 ± 0.0046 mPa·s and the viscosity (318.15 K, 100 kPa) was 0.448 ± 0.006 mPa·s and 0.442 ± 0.004 mPa·s and 0.4456 ± 0.018 mPa·s. The viscosity (321.15 K, 101.32 kPa) was 0.4101 ± 0.01 mPa·s, the viscosity (322.15 K, 101.32 kPa) was 0.4068 ± 0.01 mPa·s and the viscosity (322.9 K, 101 kPa) was 0.3997 ± 0.011 mPa·s. The viscosity (323.15 K, 100 kPa) was 0.3905 ± 0.0012 mPa·s and 0.428 ± 0.005 mPa·s and 0.421 ± 0.003 mPa·s, the viscosity (323.15 K, 101.3 kPa) was 0.396 ± 0.011 mPa·s and the viscosity (323.15 K, 101.32 kPa) was 0.401 ± 0.01 mPa·s. The viscosity (323.15 K, 101.33 kPa) was 0.3907 ± 0.01 mPa·s and 0.406 ± 0.0041 mPa·s.
Work on `COC(=O)OC` yielded a viscosity (293.15 K, 100 kPa) of 0.62 ± 0.11 mPa·s, a viscosity (293.15 K, 101 kPa) of 0.624 ± 0.014 mPa·s and a viscosity (293.15 K, 101.3 kPa) of 0.628 ± 0.014 mPa·s. For the same molecule, the viscosity (298.15 K, 100 kPa) was 0.58 ± 0.1 mPa·s, the viscosity (298.15 K, 101 kPa) was 0.58 ± 0.02 mPa·s and the viscosity (303.15 K, 100 kPa) was 0.5 ± 0.09 mPa·s. The viscosity (303.15 K, 101 kPa) was 0.55 ± 0.02 mPa·s and 0.55 ± 0.013 mPa·s, the viscosity (303.15 K, 101.3 kPa) was 0.553 ± 0.012 mPa·s and the viscosity (303.15 K, 101.33 kPa) was 0.503 ± 0.015 mPa·s. The viscosity (308.15 K, 100 kPa) was 0.47 ± 0.08 mPa·s, the viscosity (308.15 K, 101 kPa) was 0.49 ± 0.02 mPa·s and 0.519 ± 0.013 mPa·s and the viscosity (308.15 K, 101.3 kPa) was 0.524 ± 0.011 mPa·s. For the same molecule, the viscosity (308.15 K, 101.33 kPa) was 0.474 ± 0.014 mPa·s, the viscosity (313.15 K, 100 kPa) was 0.45 ± 0.08 mPa·s and 0.489 ± 0.015 mPa·s and the viscosity (313.15 K, 101 kPa) was 0.45 ± 0.02 mPa·s and 0.491 ± 0.012 mPa·s. The viscosity (313.15 K, 101.3 kPa) was 0.496 ± 0.005 mPa·s, the viscosity (318.15 K, 100 kPa) was 0.43 ± 0.08 mPa·s and 0.462 ± 0.014 mPa·s and the viscosity (318.15 K, 101 kPa) was 0.4 ± 0.02 mPa·s and 0.465 ± 0.012 mPa·s. The viscosity (323.15 K, 100 kPa) was 0.38 ± 0.07 mPa·s and 0.437 ± 0.014 mPa·s and the viscosity (323.15 K, 101 kPa) was 0.442 ± 0.012 mPa·s.
With `NCCCN` the viscosity (293.15 K, 100 kPa) was 1.965 ± 0.033 mPa·s and 1.96 ± 0.03 mPa·s, the viscosity (293.15 K, 101.3 kPa) was 2.03 ± 0.03 mPa·s and the viscosity (293.15 K, 101.33 kPa) was 1.93 ± 0.06 mPa·s. For the same molecule, the viscosity (298.15 K, 100 kPa) was 1.769 ± 0.03 mPa·s and 1.74 ± 0.03 mPa·s, the viscosity (298.15 K, 101.3 kPa) was 1.83 ± 0.03 mPa·s and the viscosity (298.15 K, 101.33 kPa) was 1.67 ± 0.05 mPa·s. The viscosity (303.15 K, 100 kPa) was 1.506 ± 0.025 mPa·s and 1.57 ± 0.03 mPa·s, the viscosity (303.15 K, 101 kPa) was 1.608 ± 0.013 mPa·s and 1.594 ± 0.019 mPa·s and the viscosity (303.15 K, 101.3 kPa) was 1.62 ± 0.03 mPa·s. For the same molecule, the viscosity (303.15 K, 101.33 kPa) was 1.52 ± 0.05 mPa·s and 1.594 ± 0.019 mPa·s, the viscosity (308.15 K, 100 kPa) was 1.465 ± 0.024 mPa·s and 1.39 ± 0.03 mPa·s and the viscosity (308.15 K, 101 kPa) was 1.445 ± 0.012 mPa·s and 1.423 ± 0.017 mPa·s. For the same molecule, the viscosity (308.15 K, 101.3 kPa) was 1.42 ± 0.03 mPa·s, the viscosity (308.15 K, 101.33 kPa) was 1.37 ± 0.04 mPa·s and 1.423 ± 0.017 mPa·s and the viscosity (313.15 K, 100 kPa) was 1.259 ± 0.021 mPa·s and 1.26 ± 0.03 mPa·s. The viscosity (313.15 K, 101 kPa) was 1.306 ± 0.01 mPa·s and 1.297 ± 0.015 mPa·s, the viscosity (313.15 K, 101.3 kPa) was 1.23 ± 0.03 mPa·s and the viscosity (313.15 K, 101.33 kPa) was 1.22 ± 0.04 mPa·s and 1.297 ± 0.015 mPa·s. For the same molecule, the viscosity (318.15 K, 100 kPa) was 1.181 ± 0.02 mPa·s and 1.07 ± 0.03 mPa·s, the viscosity (318.15 K, 101 kPa) was 1.191 ± 0.0096 mPa·s and 1.181 ± 0.014 mPa·s and the viscosity (318.15 K, 101.3 kPa) was 1.13 ± 0.03 mPa·s. The viscosity (318.15 K, 101.33 kPa) was 1.11 ± 0.03 mPa·s and 1.181 ± 0.014 mPa·s, the viscosity (323.15 K, 101 kPa) was 1.09 ± 0.0088 mPa·s and 1.07 ± 0.013 mPa·s and the viscosity (323.15 K, 101.33 kPa) was 1.07 ± 0.013 mPa·s.
With `Oc1ccccc1` the viscosity (293.15 K, 101 kPa) was 11.04 ± 0.14 mPa·s and 11.04 ± 0.12 mPa·s and 11.04 ± 0.16 mPa·s, the viscosity (293.2 K, 101 kPa) was 11.04 ± 0.16 mPa·s and the viscosity (293.25 K, 101 kPa) was 11.04 ± 0.15 mPa·s and 11.04 ± 0.16 mPa·s. The viscosity (298 K, 101.3 kPa) was 9.41 ± 0.14 mPa·s, the viscosity (298.15 K, 101 kPa) was 8.945 ± 0.13 mPa·s and the viscosity (302.95 K, 101 kPa) was 7.09 ± 0.08 mPa·s and 7.1 ± 0.085 mPa·s. It also gave a viscosity (303 K, 101.3 kPa) of 7.553 ± 0.093 mPa·s, a viscosity (303.05 K, 101 kPa) of 7.09 ± 0.09 mPa·s and a viscosity (303.1 K, 101 kPa) of 7 ± 0.15 mPa·s. The viscosity (303.15 K, 101.33 kPa) was 7 ± 0.07 mPa·s, the viscosity (308 K, 101.3 kPa) was 6.106 ± 0.064 mPa·s and the viscosity (308.1 K, 101 kPa) was 5.55 ± 0.11 mPa·s. For the same molecule, the viscosity (308.15 K, 101 kPa) was 6.032 ± 0.16 mPa·s and 4.649 ± 0.057 mPa·s, the viscosity (308.15 K, 101.33 kPa) was 5.969 ± 0.072 mPa·s and the viscosity (313 K, 101.3 kPa) was 4.971 ± 0.052 mPa·s. The viscosity (313.05 K, 101 kPa) was 4.79 ± 0.05 mPa·s, the viscosity (313.25 K, 101 kPa) was 4.74 ± 0.06 mPa·s and the viscosity (313.35 K, 101 kPa) was 4.74 ± 0.05 mPa·s. The viscosity (318 K, 101.3 kPa) was 4.056 ± 0.046 mPa·s, the viscosity (322.95 K, 101 kPa) was 3.28 ± 0.04 mPa·s and the viscosity (323.1 K, 101 kPa) was 3.2 ± 0.073 mPa·s and 3.2 ± 0.065 mPa·s. The viscosity (323.15 K, 101.33 kPa) was 3.2 ± 0.032 mPa·s and 3.432 ± 0.034 mPa·s.
